In ChEMBL document CHEMBL1155220, “The medicinal chemistry of dengue fever” (J Med Chem, 2009):
Values after ≈ are worked out from the molar mass of the structure shown.

Experiments:
[1] = tested on: Dengue virus; test: Inhibition of Dengue virus NS3 helicase at 100 uM
[2] = Inhibition of Dengue virus NS3 helicase
[3] = Inhibition of Dengue virus IMPDH
[4] = tested on: Dengue virus; test: Antiviral activity against Dengue virus; assay type: functional, organism-based
[5] = tested on: Dengue virus; test: Antiviral activity against Dengue virus by cell based assay; assay type: functional, organism-based
[6] = Inhibition of Dengue virus N7-methyl transferase
[7] = Inhibition of Dengue virus 2'-O-methyl transferase
[8] = tested on: Dengue virus; test: Antiviral activity against Dengue virus assessed as inhibition of virus-induced cytopathic effect by cell based assay; assay type: functional, organism-based
[9] = tested on: Dengue virus; test: Antiviral activity against Dengue virus assessed as reduction of virus yield by cell based assay; assay type: functional, organism-based
[10] = Inhibition of Dengue virus sEnvelope glycoprotein binding to immobilized heparin

In the case of `CO[C@@H]1[C@H](O)[C@@H](CO)O[C@H]1n1cnc2c(=O)[nH][nH]c(=O)c21`, the inhibition [1] is reported as 30% and the IC50 [2] is reported as 30 µM.

`C#Cc1c(C(N)=O)ncn1[C@@H]1O[C@H](CO)[C@@H](O)[C@H]1O` gave an IC50 [3] of 38 mg/L (≈ 142 µM).

With `CCN(CCCN(CC)C(=O)c1ccc(O)cc1)C(=O)c1ccc(O)cc1` the IC50 [4] was 2000 µM.

Molecule `CN(CCCNC(=O)c1ccc(O)cc1)CCCNC(=O)c1ccc(O)cc1` has an IC50 [4] of 2000 µM.

For `O=C(O)/C=C/c1ccc(OS(=O)(=O)O)cc1`, the IC50 [4] was 2000 µM.

In the case of `CN(CCCNC(=O)c1ccc(O)cc1)CCCNC(=O)c1ccc2cc(O)ccc2c1`, the IC50 [4] is reported as 294 µM.

`CCN(CCOC(=O)/C=C/c1ccc(O)cc1)Cc1cc(Cl)ccc1O` showed an IC50 [4] of 46 µM.

`O=c1cnn([C@@H]2O[C@H](CO)[C@@H](O)[C@H]2O)c(=O)[nH]1` [6-AZAURIDINE] gave an EC50 [5] of 0.1 mg/L.

`O=C(O)C1=CC(=C(c2ccc(O)c(C(=O)O)c2)c2ccc(O)c(C(=O)O)c2)C=CC1=O` [AURINTRICARBOXYLIC ACID] gave an IC50 [6] of 2.3 µM and an IC50 [7] of 127 µM.

Molecule `C[C@@]1(O)[C@H](O)[C@@H](CO)O[C@H]1n1ccc2c(N)ncnc21` [BETA-2'-C-METHYL-7-DEAZA-ADENOSINE] has an EC50 [5] of 15 µM.

`O[C@H]1[C@H](O)[C@@H](O)CN2CC[C@H](O)[C@H]12` [CASTANOSPERMINE] showed an IC50 [4] of 1 µM.

For `CN[C@@H]1[C@@H](O)[C@@H](O[C@@H]2[C@@H](O)[C@H](O[C@H]3O[C@H]([C@@H](C)O)[C@@H](O)[C@H](O)[C@H]3N)[C@@H](N)C[C@H]2N)OC[C@]1(C)O` [GENETICIN], the EC50 [8] was 6 µM and the EC50 [9] was 4 µM.

`COc1cc(NC(=O)Nc2cccc(CNC(=O)O[C@H]3CCOC3)c2)ccc1-c1cnco1` [MERIMEPODIB] gave an IC50 [4] of 8 µM.

Work on `COc1c(C)c2c(c(O)c1C/C=C(\C)CCC(=O)O)C(=O)OC2` [MYCOPHENOLIC ACID] yielded an IC50 [3] of 0.1 mg/L (≈ 0.312 µM).

In the case of `NC(=O)c1ncn([C@@H]2O[C@H](CO)[C@@H](O)[C@H]2O)n1` [RIBAVIRIN], the IC50 [3] is reported as 1.6 mg/L (≈ 6.55 µM) and the EC50 [4] is reported as 49 mg/L (≈ 201 µM).

With `Cc1ccc(C(=O)Nc2ccc(S(=O)(=O)O)c3cc(S(=O)(=O)O)cc(S(=O)(=O)O)c23)cc1NC(=O)c1cccc(NC(=O)Nc2cccc(C(=O)Nc3cc(C(=O)Nc4ccc(S(=O)(=O)O)c5cc(S(=O)(=O)O)cc(S(=O)(=O)O)c45)ccc3C)c2)c1` [SURAMIN] the IC50 [10] was 0.7 µM.
